Experimental data from PubChem BioAssay (NCI).
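Where inhibition never reached the appropriate level, the endpoint shown equals the highest concentration tested. Otherwise, values were interpolated linearly from a five-concentration, 48-hour dose response in 96-well plates. TGI: total growth inhibition.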

What was measured:
Assay in all cases: NCI tumour cell line growth inhibition, 48 h
P388 leukemia = system: P388 leukemia
P388/ADR leukemia = system: P388/ADR leukemia
SN12K1 renal = system: SN12K1 renal
DU-145 prostate = system: DU-145 prostate
HS 578T breast = system: HS 578T breast
MDA-MB-231 breast = system: MDA-MB-231 breast
MDA-MB-435 = system: MDA-MB-435
MDA-N = system: MDA-N
PC-3 prostate = system: PC-3 prostate
T-47D breast = system: T-47D breast

Row | Compound | TGI (P388 leukemia) [µM] | TGI (P388/ADR leukemia) [µM] | TGI (SN12K1 renal) [µM] | TGI (DU-145 prostate) [µM] | TGI (HS 578T breast) [µM] | TGI (MDA-MB-231 breast) [µM] | TGI (MDA-MB-435) [µM] | TGI (MDA-N) [µM] | TGI (PC-3 prostate) [µM] | TGI (T-47D breast) [µM]
1 | COc1ccccc1Cc1nc(-c2ccccc2)nn(C2OC(COC(C)=O)C(OC(C)=O)C(OC(C)=O)C2OC(C)=O)c1=S (stereo not given) | > 100 | > 100 | > 53.4 |  |  |  |  |  |  | 
2 | NCCCN(CCCN)CCN(CCN(CCCN)CCCN)CCN(CCCN)CCCN |  |  |  | > 100 | 58.5 | > 100 | > 100 | > 100 | > 100 | > 100
